Results: the supplement of paper PMC10307832

What was measured:
Test in all cases: relative viability (nuclei count vs DMSO), 5 days (fraction); higher = more cells survive
RU-SKI 43 + Decitabine = compound: CC[C@@H](C)CNCC(=O)N1CCC2=C([C@@H]1COC3=CC=CC(=C3)C)C=CS2 [RU-SKI 43] + Nc1ncn([C@H]2C[C@H](O)[C@@H](CO)O2)c(=O)n1 [Decitabine] (partner 2 µM)
Summary of the method: (§1)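 The day after seeding in 1536-well plates, lung cancer cell lines were treated by pin tool with a single drug, or with a fixed anchor-drug dose together with five library-drug doses (not always all listed) in √10 steps. After 5 days, a combined fix-and-stain solution (final 0.05% Triton X-100, 1% formaldehyde, 1 ug/ml Hoechst) was added. Nuclei counted on 4× images gave relative viability as treated counts over vehicle counts, reported as the median of duplicate plates.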

Irinotecan + Foretinib = compound: CCc1c2c(nc3ccc(OC(=O)N4CCC(N5CCCCC5)CC4)cc13)-c1cc3c(c(=O)n1C2)COC(=O)[C@]3(O)CC [Irinotecan] + COc1cc2c(Oc3ccc(NC(=O)C4(C(=O)Nc5ccc(F)cc5)CC4)cc3F)ccnc2cc1OCCCN1CCOCC1 [Foretinib] (partner 0.25 µM)
Summary of the method: as §1

Irinotecan + Bortezomib = compound: CCc1c2c(nc3ccc(OC(=O)N4CCC(N5CCCCC5)CC4)cc13)-c1cc3c(c(=O)n1C2)COC(=O)[C@]3(O)CC [Irinotecan] + CC(C)C[C@H](NC(=O)[C@H](Cc1ccccc1)NC(=O)c1cnccn1)B(O)O [Bortezomib] (partner 0.002 µM)
Summary of the method: as §1

Cell Line | relative viability (RU-SKI 43 + Decitabine; first compound 0.1 µM) | relative viability (RU-SKI 43 + Decitabine; first compound 0.3162 µM) | relative viability (RU-SKI 43 + Decitabine; first compound 1 µM) | relative viability (RU-SKI 43 + Decitabine; first compound 3.162 µM) | relative viability (RU-SKI 43 + Decitabine; first compound 10 µM) | relative viability (Irinotecan + Foretinib; first compound 0.6325 µM) | relative viability (Irinotecan + Foretinib; first compound 2 µM) | relative viability (Irinotecan + Foretinib; first compound 6.325 µM) | relative viability (Irinotecan + Foretinib; first compound 20 µM) | relative viability (Irinotecan + Bortezomib; first compound 0.6325 µM) | relative viability (Irinotecan + Bortezomib; first compound 2 µM) | relative viability (Irinotecan + Bortezomib; first compound 6.325 µM) | relative viability (Irinotecan + Bortezomib; first compound 20 µM)
NCI-H522 | 0.682 | 0.568 | 0.669 | 0.768 | 0.677 |  |  |  |  |  |  |  | 
NCI-H358 | 0.199 | 0.184 | 0.248 | 0.217 | 0.19 | 0.563 | 0.476 | 0.195 | 0.134 |  |  |  | 
NCI-H1755 | 0.714 | 0.798 | 0.758 | 0.715 | 0.755 | 0.9 | 0.667 | 0.35 | 0.462 | 0.9 | 0.935 | 0.355 | 0.327
LCLC-103H | 0.728 | 0.762 | 0.732 | 0.764 | 0.72 | 0.59 | 0.522 | 0.373 | 0.347 | 0.813 | 0.76 | 0.518 | 0.557
HOP-62 | 0.231 | 0.179 | 0.248 | 0.202 | 0.209 | 0.7 | 0.256 | 0.199 | 0.195 | 0.642 | 0.2 | 0.112 | 0.179
HCC-78 | 0.676 | 0.602 | 0.781 | 0.667 | 0.639 | 0.695 | 0.491 | 0.282 | 0.24 | 0.404 | 0.393 | 0.242 | 0.257
NCI-H650 | 0.281 | 0.335 |  | 0.311 | 0.312 | 0.981 | 0.774 | 0.226 | 0.15 | 0.689 | 0.507 | 0.262 | 0.385
NCI-H1563 |  |  |  |  |  | 0.966 | 0.928 | 0.975 | 0.425 | 0.598 | 0.891 | 0.871 | 0.477
ABC-1 | 1.01 | 1.14 | 1.2 | 1.07 | 1.17 |  | 0.617 | 0.28 | 0.152 |  | 0.276 | 0.324 | 0.103
Calu-6 |  |  |  |  |  | 0.605 | 0.429 | 0.168 | 0.087 | 0.816 | 0.551 | 0.296 | 0.114
EBC-1 |  |  |  |  |  | 0.0988 | 0.1 | 0.115 | 0.112 | 0.421 | 0.437 | 0.474 | 0.143
NCI-H520 | 0.502 | 0.564 | 0.568 | 0.589 | 0.501 | 0.623 | 0.679 | 0.352 | 0.283 | 0.446 | 0.477 | 0.252 | 0.138
NCI-H322M | 0.631 | 0.673 | 0.717 | 0.689 | 0.65 | 0.971 | 0.882 | 0.491 | 0.368 | 1.34 | 0.859 | 0.564 | 0.347
201T | 0.838 | 0.824 | 0.854 | 0.856 | 0.831 |  | 0.991 | 0.53 | 0.151 |  | 1.12 | 1.06 | 0.942
RERF-LC-KJ | 0.782 | 0.832 | 0.69 | 0.681 | 0.58 | 0.956 | 0.815 | 0.518 | 0.411 |  | 1.16 | 0.563 | 0.468
